The structures appear in SMILES notation. Where only a bound is given, the exact number is not on record here.

In the first assay the test system is PDE4. Description: Evaluation of PDE4 inhibitory activity, scintillation proximity assay. The assay is classed as biochemical. As to conditions: scintillation proximity assay; class symbols of Evaluation 1; read-out: PDE4 Inhibitory Activity (concentration for the inhibition rate of 50%, IC50), Evaluation 1. Summed up:
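SPA with [2,8-3H]-cAMP and diluted PDE4 enzyme preparation in 50 mM Tris-HCl pH 7.4, 8.3 mM MgCl2, 1.7 mM EGTA, 3 mg/mL BSA, 120 min at room temperature. Product captured on ZnSO4-containing YSi-SPA beads, scintillation counted; IC50 from inhibition curves vs DMSO control and no-enzyme blank.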
On to `COC(C)c1cc(-c2nccs2)c2oc(N3CC4CC(C3)N4)nc2c1` (stereo not shown) [Example 111, 2-(3,6-Diazabicyclo[3.1.1]heptan-3-yl)-5-(1-methoxyethyl)-7-(thiazol-2-yl)benzo[d]oxazole], for which the IC50 was under 100 nM.
On the same count and under the same terms, the figure for `N#CCOC(c1cc(-c2nccs2)c2oc(N3CC4CC(C3)N4)nc2c1)C(F)(F)F` (stereo not shown) [Example 152, 2-(1-(2-(3,6-Diazabicyclo[3.1.1]heptan-3-yl)-7-(thiazol-2-yl)benzo[d]oxazol-5-yl)-2,2,2-trifluoroethoxy)acetonitrile] is under 100 nM.
The same measure, in the same setting: then `COC(c1cc(-c2nccs2)c2oc(N3CC4CCC(C3)N4)nc2c1)C(F)(F)F` (stereo not shown) [Example 143, 2-(3,8-Diazabicyclo[3.2.1]octan-3-yl)-7-(thiazol-2-yl)-5-(2,2,2-trifluoro-1-methoxyethyl)benzo[d]oxazole], with under 100 nM.
Same read-out and setting: the figure for `FC(F)(F)COC(c1cc(-c2nccs2)c2oc(N3CC4CC(C3)N4)nc2c1)C(F)(F)F` (stereo not shown) [Example 151, 2-(3,6-Diazabicyclo[3.1.1]heptan-3-yl)-7-(thiazol-2-yl)-5-(2,2,2-trifluoro-1-(2,2,2-trifluoroethoxy)ethyl)benzo[d]oxazole] is under 100 nM; for `CC(O)(c1cc(-c2nccs2)c2oc(N3CC4CC(C3)N4)nc2c1)C(F)(F)F` (stereo not shown) [Example 160, 2-(2-(3,6-Diazabicyclo[3.1.1]heptan-3-yl)-7-(thiazol-2-yl)benzo[d]oxazol-5-yl)-1,1,1-trifluoropropan-2-ol] it is under 100 nM; for `OC(c1cc(-c2nccs2)c2oc(N3CC4CCCC(C3)N4)nc2c1)C(F)(F)F` (stereo not shown) [Example 136, 1-(2-(3,9-Diazabicyclo[3.3.1]nonan-3-yl)-7-(thiazol-2-yl)benzo[d]oxazol-5-yl)-2,2,2-trifluoroethan-1-ol] it is under 100 nM.
As to `C[S+]([O-])c1cc(-c2nccs2)c2oc(N3CC4CC(C3)N4)nc2c1` (stereo not shown) [Example 43, 2-(3,6-Diazabicyclo[3.1.1]heptan-3-yl)-5-(methylsulfinyl)-7-(thiazol-2-yl)benzo[d]oxazole], the IC50 was under 100 nM.
Regarding `Clc1ccc(-c2nccs2)c2oc(N3CC4CCCC(C3)N4)nc12` [Example 38, 2-(3,9-Diazabicyclo[3.3.1]nonan-3-yl)-4-chloro-7-(thiazol-2-yl)benzo[d]oxazole], the IC50 is under 100 nM.
In the case of `COC(c1ccc(-c2nccs2)c2oc(N3CC4CC(C3)N4)nc12)C(F)(F)F` (stereo not shown) [Example 122, 2-(3,6-Diazabicyclo[3.1.1]heptan-3-yl)-7-(thiazol-2-yl)-4-(2,2,2-trifluoro-1-methoxyethyl)benzo[d]oxazole], the IC50 was under 100 nM.
`CCOC(=O)c1ccc(-c2nccs2)c2oc(N3CC4CCCC(C3)N4)nc12` [Example 114, Ethyl 2-(3,9-diazabicyclo[3.3.1]nonan-3-yl)-7-(thiazol-2-yl)benzo[d]oxazole-4-carboxylate]: the IC50 is under 100 nM.
For `COC(c1cc(-c2nccs2)c2oc(N3CC4CCCC(C3)N4)nc2c1)C(F)(F)F` (stereo not shown) [Example 145, 2-(3,9-Diazabicyclo[3.3.1]nonan-3-yl)-7-(thiazol-2-yl)-5-(2,2,2-trifluoro-1-methoxyethyl)benzo[d]oxazole], the IC50 is under 100 nM.
On to `COc1ccc(-c2nccs2)c2oc(N3CC4CCCC(C3)N4)nc12` [Example 77, 2-(3,9-Diazabicyclo[3.3.1]nonan-3-yl)-4-methoxy-7-(thiazol-2-yl)benzo[d]oxazole], for which the IC50 was under 100 nM.
For `CC(C)(O)c1cc(-c2nccs2)c2oc(N3CC4CCCC(C3)N4)nc2c1C(F)(F)F` [Example 166, 2-(2-(3,9-Diazabicyclo[3.3.1]nonan-3-yl)-7-(thiazol-2-yl)-4-(trifluoromethyl)benzo[d]oxazol-5-yl)propan-2-ol], the IC50 is under 100 nM.
Consider `c1csc(-c2cc(OCC3COC3)cc3nc(N4CC5CCC(C4)N5)oc23)n1` [Example 70, 2-(3,8-Diazabicyclo[3.2.1]octan-3-yl)-5-(oxetan-3-ylmethoxy)-7-(thiazol-2-yl)benzo[d]oxazole], for which the IC50 was under 100 nM.
On to `FC(F)(F)c1c(Cl)cc(-n2cccn2)c2oc(N3CC4CCC(C3)N4)nc12` [Example 15, 2-(3,8-Diazabicyclo[3.2.1]octan-3-yl)-5-chloro-7-(1H-pyrazol-1-yl)-4-(trifluoromethyl)benzo[d]oxazole], for which the IC50 was under 100 nM.
On to `CC(C)(O)c1cc(-c2nccs2)c2oc(N3CC4CCC(C3)N4)nc2c1` [Example 172, 2-(2-(3,8-Diazabicyclo[3.2.1]octan-3-yl)-7-(thiazol-2-yl)benzo[d]oxazol-5-yl)propan-2-ol], for which the IC50 was under 100 nM.
Turning to `c1csc(-c2ccc(OC3CCOC3)c3nc(N4CC5CCC(C4)N5)oc23)n1` (stereo not shown) [Example 84, 2-(3,8-Diazabicyclo[3.2.1]octan-3-yl)-4-((tetrahydrofuran-3-yl)oxy)-7-(thiazol-2-yl)benzo[d]oxazole], the IC50 is under 100 nM.
`CC(O)(c1cc(-c2nccs2)c2oc(N3CC4CCCC(C3)N4)nc2c1)C(F)(F)F` (stereo not shown) [Example 161, 2-(2-(3,9-Diazabicyclo[3.3.1]nonan-3-yl)-7-(thiazol-2-yl)benzo[d]oxazol-5-yl)-1,1,1-trifluoropropan-2-ol]: the IC50 was under 100 nM.
On the same count and under the same terms, the figure for `COCC(O)COc1ccc(-c2nccs2)c2oc(N3CC4CCC(C3)N4)nc12` (stereo not shown) [Example 83, 1-((2-(3,8-Diazabicyclo[3.2.1]octan-3-yl)-7-(thiazol-2-yl)benzo[d]oxazol-4-yl)oxy)-3-methoxypropan-2-ol] is under 100 nM; for `OC(c1cc(-c2nccs2)c2oc(N3CC4CCC(C3)N4)nc2c1)C(F)(F)F` (stereo not shown) [Example 139, 1-(2-(3,8-Diazabicyclo[3.2.1]octan-3-yl)-7-(thiazol-2-yl)benzo[d]oxazol-5-yl)-2,2,2-trifluoroethan-1-ol] it is under 100 nM.
As to `CCOC(=O)c1cc(-c2nccs2)c2oc(N3CC4CC(C3)N4)nc2c1` [Example 87, Ethyl 2-(3,6-diazabicyclo[3.1.1]heptan-3-yl)-7-(thiazol-2-yl)benzo[d]oxazole-5-carboxylate], the IC50 was under 100 nM.
With `CC(O)(c1ccc(-c2nccs2)c2oc(N3CC4CC(C3)N4)nc12)C(F)F` (stereo not shown) [Example 126, 2-(2-(3,6-Diazabicyclo[3.1.1]heptan-3-yl)-7-(thiazol-2-yl)benzo[d]oxazol-4-yl)-1,1-difluoropropan-2-ol], the IC50 is under 100 nM.

Staying with this assay, now noted: scintillation proximity assay; read-out: PDE4 Inhibitory Activity (Evaluation 1; concentration for the inhibition rate of 50%).
Turning to `FC(F)(F)COC(c1ccc(-c2nccs2)c2oc(N3CC4CCC(C3)N4)nc12)C(F)(F)F` (stereo not shown) [Example 221, 2-(3,8-Diazabicyclo[3.2.1]octan-3-yl)-7-(thiazol-2-yl)-4-(2,2,2-trifluoro-1-(2,2,2-trifluoroethoxy)ethyl)benzo[d]oxazole], the IC50 is under 100 nM.
`OC(c1ccc(-c2nccs2)c2oc(N3CC4CCC(C3)N4O)nc12)C(F)(F)F` (stereo not shown) [Example 378, 3-(7-(Thiazol-2-yl)-4-(2,2,2-trifluoro-1-hydroxyethyl)benzo[d]oxazol-2-yl)-3,8-diazabicyclo[3.2.1]octan-8-ol]: the IC50 was 100 to 1000 nM.
On the same count and under the same terms, the figure for `CC(C)(O)C(F)(F)Oc1ccc(-c2nccs2)c2oc(N3CC4CC(C3)N4O)nc12` [Example 371, 3-(4-(1,1-Difluoro-2-hydroxy-2-methylpropoxy)-7-(thiazol-2-yl)benzo[d]oxazol-2-yl)-3,6-diazabicyclo[3.1.1]heptan-6-ol] is under 100 nM.
On to `CC(O)C(F)(F)Oc1ccc(-c2cscn2)c2oc(N3CC4CC(C3)N4)nc12` (stereo not shown) [Example 309, 1-((2-(3,6-Diazabicyclo[3.1.1]heptan-3-yl)-7-(thiazol-4-yl)benzo[d]oxazol-4-yl)oxy)-1,1-difluoropropan-2-ol], for which the IC50 is under 100 nM.
The same measure, in the same setting: the figure for `COC(C)(C)C(F)(F)Oc1ccc(-c2nccs2)c2oc(N3CC4CC(C3)N4)nc12` [Example 393, 2-(3,6-Diazabicyclo[3.1.1]heptan-3-yl)-4-(1,1-difluoro-2-methoxy-2-methylpropoxy)-7-(thiazol-2-yl)benzo[d]oxazole] is under 100 nM; for `FC(F)Oc1ccc(-c2nccs2)c2oc(N3CC4CC(C3)N4)nc12` [Example 278, 2-(3,6-Diazabicyclo[3.1.1]heptan-3-yl)-4-(difluoromethoxy)-7-(thiazol-2-yl)benzo[d]oxazole] it is under 100 nM; for `OC(c1cc(-c2cscn2)c2oc(N3CC4CCC(C3)N4)nc2c1OC(F)(F)F)C(F)F` (stereo not shown) [Example 302, 1-(2-(3,8-Diazabicyclo[3.2.1]octan-3-yl)-7-(thiazol-4-yl)-4-(trifluoromethoxy)benzo[d]oxazol-5-yl)-2,2-difluoroethan-1-ol] it is under 100 nM.
On the same count and under the same terms, then `ON1C2CC1CN(c1nc3c(OC(F)(F)F)ccc(-c4nccs4)c3o1)C2` [Example 380, 3-(7-(Thiazol-2-yl)-4-(trifluoromethoxy)benzo[d]oxazol-2-yl)-3,6-diazabicyclo[3.1.1]heptan-6-ol], with under 100 nM.
For `OC(O)(c1ccc(-c2nccs2)c2oc(N3CC4CCC(C3)N4)nc12)C(F)(F)F` [Example 233, 1-(2-(3,8-Diazabicyclo[3.2.1]octan-3-yl)-7-(thiazol-2-yl)benzo[d]oxazol-4-yl)-2,2,2-trifluoroethane-1,1-diol], the IC50 is under 100 nM.
Turning to `CC(O)c1cc(-c2nccs2)c2oc(N3CC4CCC(C3)N4)nc2c1C(F)(F)F` (stereo not shown) [Example 181, 1-(2-(3,8-Diazabicyclo[3.2.1]octan-3-yl)-7-(thiazol-2-yl)-4-(trifluoromethyl)benzo[d]oxazol-5-yl)ethan-1-ol], the IC50 is under 100 nM.
For the compound `OC(COc1ccc(-c2nccs2)c2oc(N3CC4CC(C3)N4)nc12)C(F)(F)F` (stereo not shown) [Example 277, 3-((2-(3,6-Diazabicyclo[3.1.1]heptan-3-yl)-7-(thiazol-2-yl)benzo[d]oxazol-4-yl)oxy)-1,1,1-trifluoropropan-2-ol], the IC50 is under 100 nM.
Turning to `c1csc(-c2ccc(OC3CCCOC3)c3nc(N4CC5CCC(C4)N5)oc23)n1` (stereo not shown) [Example 262, 2-(3,8-Diazabicyclo[3.2.1]octan-3-yl)-4-((tetrahydro-2H-pyran-3-yl)oxy)-7-(thiazol-2-yl)benzo[d]oxazole], the IC50 was under 100 nM.

(Values after patent US12239643B2, “Therapeutic agent for inflammatory diseases, autoimmune diseases, fibrotic diseases, and cancer diseases” (MEIJI SEIKA PHARMA CO., LTD., priority 2018, dated 2025).)
